Reference: publication PMC7201278, “A structural study of TatD from Staphylococcus aureus elucidates a putative DNA-binding mode of a Mg^2+-dependent nuclease” (IUCrJ, 2020)

Assays:
[1] = target: T1, SaTatD (SAV0491) (Staphylococcus aureus, UniProt W8U6D8); details: two phosphates per monomer in active site, coordinated to two Ni2+; SeMet-derived protein; 2.4 M sodium malonate pH 7.0, 20°C
T1 construct: gene yabD

[2] = target: SaTatD (SAV0491), TatD-like DNase from Staphylococcus aureus (Mu50 strain) (Staphylococcus aureus (Mu50 strain)); experiment: SEC; analytical gel filtration, Superdex 200 (10/300 GL), buffer A (20 mM Tris, 150 mM NaCl pH 8.0), 0.5 ml/min, gel-filtration standards; SaTatD at 20.0 mg/ml (high concentration)

Row | Compound | X-ray crystal structure (SAD, 1.85 Å) [1] | stoichiometry N [2]
1 | O=P(O)(O)O [phosphate] | Polar interactions were also observed between the two phosphates and the surface residues of SaTatD | –
2 | SaTatD (SAV0491), TatD-like DNase from Staphylococcus aureus (Mu50 strain) (enzyme) | – | 2
